Laboratory results reported in ChEMBL document CHEMBL4418318, “Dynamin-1-like protein inhibitors” (2018).

Target: Dynamin-1-like protein (Homo sapiens, UniProt O00429)
Assay: Inhibition of DRP1 (unknown origin) using GTP as substrate incubated for 20 mins by malachite green reagent based colorimetric assay

Dynamin-1-like protein, sequence (O00429 whole entry): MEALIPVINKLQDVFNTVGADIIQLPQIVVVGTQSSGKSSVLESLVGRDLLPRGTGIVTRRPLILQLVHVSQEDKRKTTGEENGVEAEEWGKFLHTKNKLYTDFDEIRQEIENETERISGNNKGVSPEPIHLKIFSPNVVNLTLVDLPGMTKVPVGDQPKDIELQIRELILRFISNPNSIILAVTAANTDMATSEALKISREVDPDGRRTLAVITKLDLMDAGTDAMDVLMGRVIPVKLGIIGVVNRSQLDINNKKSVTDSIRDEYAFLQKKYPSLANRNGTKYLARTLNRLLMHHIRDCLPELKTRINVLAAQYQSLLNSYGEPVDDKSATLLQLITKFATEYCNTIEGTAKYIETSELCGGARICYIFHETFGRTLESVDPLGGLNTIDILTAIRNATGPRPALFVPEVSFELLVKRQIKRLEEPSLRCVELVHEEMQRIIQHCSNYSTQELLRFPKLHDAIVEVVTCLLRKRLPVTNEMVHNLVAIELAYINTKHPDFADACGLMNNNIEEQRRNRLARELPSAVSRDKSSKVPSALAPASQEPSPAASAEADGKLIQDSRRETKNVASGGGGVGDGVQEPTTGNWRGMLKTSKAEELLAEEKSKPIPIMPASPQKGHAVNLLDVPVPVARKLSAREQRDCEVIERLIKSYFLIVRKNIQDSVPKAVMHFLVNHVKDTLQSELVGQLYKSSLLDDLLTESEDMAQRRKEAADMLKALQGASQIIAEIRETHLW

IC50: > 100 µM
Compound: O=C(O)c1ccc(NC(=O)c2cc(Br)cn2Cc2csc(N3CCCCC3)n2)cc1
